Reference: ChEMBL document CHEMBL4007500, “Cyclic mu-opioid receptor ligands containing multiple N-methylated amino acid residues” (Bioorg Med Chem Lett, 2017)
Active and inactive are the calls of the source. No cut-off for these calls is given here.

Tests used:
[1] = biological target: Delta-type opioid receptor (Homo sapiens) (UniProt P41143); experiment: Agonist activity at human recombinant DOR expressed in CHO cells assessed as calcium mobilization up to 1 uM by Fluo-4 AM based fluorescence analysis; format: functional, cell-based
Delta-type opioid receptor (Homo sapiens), sequence (P41143 whole entry): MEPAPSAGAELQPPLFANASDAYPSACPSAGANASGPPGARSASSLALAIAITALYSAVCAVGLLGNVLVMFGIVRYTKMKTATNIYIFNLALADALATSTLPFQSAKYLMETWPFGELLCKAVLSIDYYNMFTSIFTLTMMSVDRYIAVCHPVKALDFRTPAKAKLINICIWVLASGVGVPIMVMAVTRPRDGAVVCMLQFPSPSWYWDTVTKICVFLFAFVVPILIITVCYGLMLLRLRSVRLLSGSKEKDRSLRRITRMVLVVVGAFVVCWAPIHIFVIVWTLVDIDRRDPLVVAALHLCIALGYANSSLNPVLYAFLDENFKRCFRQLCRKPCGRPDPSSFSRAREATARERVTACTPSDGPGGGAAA

Mu-type opioid receptor [2] = biological target: T1, Mu-type opioid receptor (Homo sapiens, UniProt P35372); experiment: Agonist activity at human recombinant MOR expressed in CHO cells assessed as calcium mobilization by Fluo-4 AM based fluorescence analysis; format: functional, cell-based
T1 sequence (P35372 whole entry): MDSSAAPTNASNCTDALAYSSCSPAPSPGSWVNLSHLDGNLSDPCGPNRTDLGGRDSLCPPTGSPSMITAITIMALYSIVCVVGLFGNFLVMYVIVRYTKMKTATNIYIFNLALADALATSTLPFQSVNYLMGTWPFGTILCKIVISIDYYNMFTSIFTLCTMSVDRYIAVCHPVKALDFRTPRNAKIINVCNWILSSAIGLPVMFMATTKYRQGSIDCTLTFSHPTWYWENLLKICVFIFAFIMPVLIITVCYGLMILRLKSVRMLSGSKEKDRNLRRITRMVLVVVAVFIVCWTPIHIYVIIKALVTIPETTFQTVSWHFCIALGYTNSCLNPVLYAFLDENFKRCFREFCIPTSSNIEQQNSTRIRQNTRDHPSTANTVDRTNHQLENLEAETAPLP

[3] = biological target: Delta-type opioid receptor (Rattus norvegicus, UniProt P33533); experiment: Displacement of [3H][Ile5,6]deltorphin-2 from DOR in Wistar rat brain homogenates after 180 mins by liquid scintillation counting analysis
Delta-type opioid receptor, sequence (P33533 whole entry): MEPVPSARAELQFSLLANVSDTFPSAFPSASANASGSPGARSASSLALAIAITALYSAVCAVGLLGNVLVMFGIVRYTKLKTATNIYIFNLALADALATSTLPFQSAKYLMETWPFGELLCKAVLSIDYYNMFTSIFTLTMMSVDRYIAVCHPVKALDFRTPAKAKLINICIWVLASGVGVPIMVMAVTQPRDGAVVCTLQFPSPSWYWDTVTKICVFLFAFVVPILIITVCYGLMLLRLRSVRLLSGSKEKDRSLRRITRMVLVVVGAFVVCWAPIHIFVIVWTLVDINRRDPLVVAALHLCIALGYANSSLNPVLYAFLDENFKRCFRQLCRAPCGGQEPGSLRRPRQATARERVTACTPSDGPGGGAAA

Mu-type opioid receptor [4] = biological target: Mu-type opioid receptor (Rattus norvegicus, UniProt P33535); experiment: Displacement of [3H]DAMGO from MOR in Wistar rat brain homogenates after 180 mins by liquid scintillation counting analysis
Mu-type opioid receptor (Rattus norvegicus, UniProt P33535), sequence (P33535 whole entry): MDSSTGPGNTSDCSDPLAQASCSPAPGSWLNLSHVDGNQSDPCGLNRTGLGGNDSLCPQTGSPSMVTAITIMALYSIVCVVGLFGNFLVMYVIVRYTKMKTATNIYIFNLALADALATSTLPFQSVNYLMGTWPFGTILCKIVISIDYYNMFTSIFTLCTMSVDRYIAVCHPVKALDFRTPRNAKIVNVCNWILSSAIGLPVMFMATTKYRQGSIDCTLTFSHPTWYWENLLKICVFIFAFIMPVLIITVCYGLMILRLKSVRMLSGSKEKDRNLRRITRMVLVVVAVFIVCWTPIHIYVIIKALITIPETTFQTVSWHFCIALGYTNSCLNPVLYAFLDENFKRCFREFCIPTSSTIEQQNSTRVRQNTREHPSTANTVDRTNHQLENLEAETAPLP

[5] = Stability of compound in Wistar rat brain homogenate assessed as compound remaining at 0.5 mM after 90 mins by RP-HPLC analysis; format: ADME, tissue-based; settings: read-out: Stability
[6] = biological target: Kappa-type opioid receptor (Cavia porcellus, UniProt P41144); experiment: Displacement of [3H]nor-BNI from KOR in Dunkin Hartley guinea pig brain homogenates after 180 mins by liquid scintillation counting analysis
Kappa-type opioid receptor, sequence (P41144 whole entry): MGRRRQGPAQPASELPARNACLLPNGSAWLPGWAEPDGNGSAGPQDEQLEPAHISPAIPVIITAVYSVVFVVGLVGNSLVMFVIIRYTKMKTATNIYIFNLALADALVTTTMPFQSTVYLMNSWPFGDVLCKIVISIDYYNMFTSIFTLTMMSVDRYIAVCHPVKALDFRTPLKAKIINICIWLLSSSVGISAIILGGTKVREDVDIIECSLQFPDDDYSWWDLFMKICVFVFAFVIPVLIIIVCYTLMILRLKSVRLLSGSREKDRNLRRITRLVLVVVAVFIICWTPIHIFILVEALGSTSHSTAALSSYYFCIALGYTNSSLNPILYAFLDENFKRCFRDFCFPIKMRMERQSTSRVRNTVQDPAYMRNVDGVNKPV

Mu-type opioid receptor [7] = biological target: T1, Mu-type opioid receptor; experiment: Agonist activity at human recombinant MOR expressed in CHO cells assessed as calcium mobilization by Fluo-4 AM based fluorescence analysis relative to EM2; format: functional, cell-based
[8] = biological target: Kappa-type opioid receptor (Homo sapiens) (UniProt P41145); experiment: Agonist activity at human recombinant KOR expressed in CHO cells assessed as calcium mobilization up to 1 uM by Fluo-4 AM based fluorescence analysis; format: functional, cell-based
Kappa-type opioid receptor (Homo sapiens), sequence (P41145 whole entry): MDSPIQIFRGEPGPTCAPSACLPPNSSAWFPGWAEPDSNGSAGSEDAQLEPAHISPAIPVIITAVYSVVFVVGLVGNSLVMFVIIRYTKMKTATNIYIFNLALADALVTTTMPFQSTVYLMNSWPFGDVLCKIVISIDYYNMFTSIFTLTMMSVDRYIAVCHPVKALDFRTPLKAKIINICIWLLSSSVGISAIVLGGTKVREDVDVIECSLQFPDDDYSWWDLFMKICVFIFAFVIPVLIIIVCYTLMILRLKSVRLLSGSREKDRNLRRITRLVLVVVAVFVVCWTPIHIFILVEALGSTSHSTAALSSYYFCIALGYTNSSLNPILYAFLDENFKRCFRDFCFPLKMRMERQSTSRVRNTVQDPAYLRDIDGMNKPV

SMILES | Activity [1] | EC50 (Mu-type opioid receptor [2]) [nM] | Ki ([3]; read-out: Ki) [nM] | Ki (Mu-type opioid receptor [4]; read-out: Ki) [nM] | remaining at 1.5 h, 500 µM [5] [%] | Ki ([6]; read-out: Ki) [nM] | Intrinsic activity (Mu-type opioid receptor [7]) | Activity [8] | pEC50 (Mu-type opioid receptor [2]) | Ki [3] | Ki (Mu-type opioid receptor [4]) | Ki [6]
CN[C@@H](Cc1ccc(O)cc1)C(=O)N[C@@H]1CCCCNC(=O)C[C@@H](C(N)=O)NC(=O)[C@H](Cc2ccccc2)N(C)C(=O)[C@H](Cc2ccccc2)NC1=O | inactive | 10.2 | > 1000 | 0.73 | 97.2 | > 1000 | 0.93 | inactive |  |  |  | 
CN[C@H](Cc1ccc(O)cc1)C(=O)N[C@H]1CCCCNC(=O)C[C@@H](C(N)=O)NC(=O)[C@H](Cc2ccccc2)N(C)C(=O)CNC(=O)[C@H](Cc2ccccc2)N(C)C1=O | inactive |  |  |  |  |  |  | inactive | inactive |  |  | 
CN[C@@H](Cc1ccc(O)cc1)C(=O)N[C@@H]1CCCCNC(=O)C[C@@H](C(N)=O)NC(=O)[C@H](Cc2ccccc2)N(C)C(=O)[C@H](Cc2ccccc2)N(C)C1=O |  |  |  |  | 96.9 |  |  |  |  | Nd(Insoluble) | Nd(Insoluble) | Nd(Insoluble)
CN[C@@H](Cc1ccc(O)cc1)C(=O)N[C@@H]1CCCCNC(=O)C[C@@H](C(N)=O)NC(=O)[C@H](Cc2ccccc2)N(C)C(=O)CNC(=O)[C@H](Cc2ccccc2)N(C)C1=O |  |  | > 1000 | 76.5 | 97 | 519 |  |  |  |  |  | 
CN[C@@H](Cc1ccc(O)cc1)C(=O)N[C@@H]1CCCCNC(=O)C[C@@H](C(N)=O)NC(=O)CNC(=O)[C@H](Cc2ccccc2)N(C)C(=O)[C@H](Cc2ccccc2)N(C)C(=O)CNC1=O | inactive |  | > 1000 | 106 | 97.4 | > 1000 |  | inactive | inactive |  |  | 
